Assay results from patent US20240390455A1, “METHODS AND COMPOSITIONS FOR TREATING CANCERS AND OTHER PROLIFERATIVE DISORDERS” (ARIZONA BOARD OF REGENTS ON BEHALF OF THE UNIVERSITY OF …, priority 2022, published 2024).
Each block holds one molecule with its values, some of them ahead of it.

Columns and labels:
SU/Hx rats = assay: SU/Hx rat model of pulmonary arterial hypertension: RV pressure and RV hypertrophy; assay type: in vivo; conditions: 5 μg/kg i.p. daily for 1 wk
Experimental: (§1) Rat models of pulmonary hypertension: Thirty-two Sprague-Dawley female rats (200-250 g) were purchased from Charles River (Wilmington, MA). Animals were kept in a 12-h:12-h light-dark cycle and received standard rodent food and water ad libitum. All experimental procedures were approved by the University of Arizona's Institutional Animal Care and Use Committee. To induce PAH, rats received either the vehicle or a single dose of the VEGF receptor 2 antagonist SU5416, 50 mg/kg sc, as previously described. On the day of injection, the PAH rats were placed in a hypoxic chamber (BioSpherix, Redfield, NJ), and the oxygen was maintained at the level of 10±0.5%. The O2 and CO2 concentrations were continuously monitored (PROOX 110 BioSpherix oxygen controller and LB-2 CO2 analyzer; Sensormedics).
The animals were analyzed after 1 or 2 weeks of exposure to hypoxia or after 5 weeks (i.e., 3 weeks of hypoxia and 2 weeks of normoxia). The control rats were kept under normoxic conditions for the duration of the study (5 weeks). At the end of each study period, animals were anesthetized ([…], 100 mg/kg ip) and instrumented for measurement of right ventricle (RV) hemodynamics. Briefly, a PE-240 polyethylene tube was inserted into the trachea to facilitate breathing. […]

RAGE/IMPA1 = molecular target: T1, RAGE/IMPA1 (Rattus norvegicus, UniProt P97697); assay: RAGE/IMPA1 co-immunoprecipitation in lungs of SU/Hx rats after peptide injection; assay type: in vivo; conditions: 5 μg/kg i.p. daily for 1 wk, FIG. 11B
T1 construct: from tissue; host or cells: lung of Sprague-Dawley rats (SU5416/hypoxia PAH model)
T1 sequence (P97697 1-277): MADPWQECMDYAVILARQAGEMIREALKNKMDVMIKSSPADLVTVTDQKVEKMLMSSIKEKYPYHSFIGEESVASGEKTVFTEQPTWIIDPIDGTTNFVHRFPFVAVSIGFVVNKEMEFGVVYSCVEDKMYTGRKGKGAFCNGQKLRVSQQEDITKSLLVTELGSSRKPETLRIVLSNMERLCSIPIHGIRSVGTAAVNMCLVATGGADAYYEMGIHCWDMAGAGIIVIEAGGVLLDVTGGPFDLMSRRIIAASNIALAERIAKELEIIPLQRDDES
Experimental: as §1
For immunoprecipitation (IP), RAGE antibodies conjugated to agarose beads were used according to the manufacturer's (Santa Cruz Biotechnology) protocol. Lung tissue lysate (300 μg of total protein) was rotated at room temperature with 20 μl of bead solution for 2 hours. Beads were collected by brief centrifugation (30 seconds at 1,000 g), washed four times with lysis buffer and PBS, resuspended with 30 μl of 2× Laemmli sample buffer, and boiled for 5 minutes at 95° C. The supernatant collected by centrifugation was used for Western Blot analysis as described.

[1] = system: PAEC isolated from IPAH patients; assay: Proliferation of PAEC isolated from IPAH patients; assay type: cell-based, human; conditions: 3.3 mg/ml, FIG. 11E
HeLa cells = assay: Proliferation of HeLa cells (human cancer cells); assay type: cell-based; conditions: FIG. 11G
[2] = system: PAEC isolated from Control subjects; assay: Growth of PAEC isolated from Control subjects (healthy cells); assay type: cell-based, human; conditions: 3.3 mg/ml, FIG. 11F
Akt = Akt phosphorylation in naive HPASMC treated with media from apoptotic cells (Western blot); assay type: cell-based, human; conditions: apoptotic conditioned media, 24 h, L-690,330 at 500 μM, FIG. 9C
Experimental: Western blot and immunoprecipitation: For an analysis of the total lung proteins, lung tissues were lysed. According to the manufacturer's protocol, the membrane proteins were isolated using Mem-PER Plus Membrane Protein Extraction Kit (ThermoFisher Scientific, Rockford, IL). Briefly, 20-40 mg of lung tissue was quickly washed in Cell WashSolution to remove any blood components, transferred to permeabilization buffer mixed with protease and phosphatase inhibitor cocktails, homogenized using Fisher Homogenizer 850 for 1 minute, and shaken in UltraCruz Shaker at 0° C. for 10 minutes. The homogenate was centrifuged at 16,000 g for 15 minutes to pellet permeabilized cells. The supernatant containing cytosolic proteins was carefully transferred to a separate tube. […] The reactive bands were visualized using a chemiluminescent protocol, recorded with the ChemiDoc MP Imaging System (Bio-RadLaboratories, Hercules, CA), and analyzed using Image Laboratory software. […]
Cell culture: Human pulmonary artery endothelial cells (HPAEC; cat. no. 3100, lot no. 3904) and human pulmonary artery smooth muscle cells (HPASMC; cat. no. 3110, lot no. 0294) were purchased from ScienCell (Carlsbad, CA), one donor for each cell type. […] The level of apoptosis was quantified using Apoptosis and Necrosis Quantification Kit (Biotum, Fremont, CA) according to the manufacturer's protocol. […]

[3] = molecular target: T2, receptor for advanced glycation endproducts (RAGE), rat, endogenous in lung tissue (rat, UniProt Q63495 23-402); assay: RAGE co-IP from PAH rat lung, mass spectrometry, immunoblot time course and PLA
T2 construct: Endogenous rat protein, pulled down from lung lysate with RAGE antibody on agarose beads or detected in situ by PLA; No construct limits apply; also called full-size RAGE
T2 sequence (Q63495 23-402 limits assumed): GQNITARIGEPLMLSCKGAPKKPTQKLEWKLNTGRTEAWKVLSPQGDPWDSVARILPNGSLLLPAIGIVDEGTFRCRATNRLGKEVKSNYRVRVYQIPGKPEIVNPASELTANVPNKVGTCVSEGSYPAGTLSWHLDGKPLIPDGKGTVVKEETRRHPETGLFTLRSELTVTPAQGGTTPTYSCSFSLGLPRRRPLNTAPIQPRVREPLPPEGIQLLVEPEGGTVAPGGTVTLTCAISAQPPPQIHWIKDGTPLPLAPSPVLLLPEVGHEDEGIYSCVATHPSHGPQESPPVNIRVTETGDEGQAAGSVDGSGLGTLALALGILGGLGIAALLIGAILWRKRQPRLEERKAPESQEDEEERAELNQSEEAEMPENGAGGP
Excerpt: FIGS. 4A, 4B, and 4C show a receptor for advanced glycation endproducts (RAGE) interacting with inositol monophosphatase 1 (IMPA1) in pulmonary arterial hypertension (PAH). Mass spectrometry analysis of proteins co-immunoprecipitated (co-IP) with RAGE from lungs identified IMPA1 as a novel RAGE interacting partner. The RAGE-IMPA1 complex was discovered in both samples from PAH animals (week 5) but not in control (peptide probability […]; 4 peptides with P>89%). […] There was no interaction between RAGE and IMPA1 in controls from week 1 RAGE/IMPA1 were efficiently co-IP (n=4 for all groups). Results are expressed as box and whisker plots (boxes: 25th to 75th percentile of the data; whiskers: minimum to maximum; the line represents the median value). *P<0.05 vs. control. Statistical analysis was performed by Newman-Keuls multiple-comparisons test. […] Images are representative of 6 pulmonary arteries/at n=4 rats/group. Gray images were taken using light microscopy (×20) to visualize the tissue structure. The square represents the area of magnification (×100). The white marker corresponds to 25 μm. […] The dotted line is traced following the external lamina of the vessel. The arrowheads point to the endothelial cells with no PLA signal; white arrows point to the cells in the pulmonary artery media and adventitia cells with a bright PLA signal. IB, immunoblot. […]

RAGE/IMPA1 co-IP (RAGE/IMPA1): inhibits RAGE/IMPA1 co-IP
Molecule: ILWQRRQRRG [SEQ ID NO: 1]
RVSP (right ventricle systolic pressure) (SU/Hx rats; FIG. 11C): reduces RVSP
RV hypertrophy (SU/Hx rats; FIG. 11D): reduces

Molecule: anti-RAGE/IMPA1 peptide: peptide designed based on the sequence of cytosolic tails of RAGE predicted to interact with IMPA1; probably SEQ ID NO: 1 (ILWQRRQRRG)
proliferative phenotype of PAEC isolated from IPAH patients [1]: reverses the highly proliferative phenotype
proliferative phenotype of HeLa cells (HeLa cells): reverses the proliferative phenotype
growth of PAEC isolated from Control subjects [2]: does not affect the growth

Molecule: CC(Oc1ccc(O)cc1)(P(=O)(O)O)P(=O)(O)O [L-690,330]
Akt phosphorylation (Akt): significantly attenuated

binding result [3]: binds
B1: inositol monophosphatase 1 (IMPA1), rat, endogenous in lung tissue (enzyme, UniProt P97697 1-277, looked up)
chain: T1 sequence (P97697 1-277)
notes: Endogenous rat protein co-immunoprecipitated with RAGE
